EP4817687A2, “NUCLEOTIDE AND NUCLEOSIDE THERAPEUTIC COMPOSITIONS AND USES RELATED THERETO” (Emory University, priority 2013, dated 2015)

Columns and labels:
[1] = molecular target: HCV NS5B polymerase (Hepatitis C virus genotype 1b, UniProt Q9WMX2); assay: HCV NS5B pol assay (NS5B RNA-dependent RNA polymerase reaction, filter binding); assay type: biochemical; conditions: 1 h; for IC25: read-out: HCV NS5B pol assay (^32P-GTP) IC25; for IC95: read-out: HCV NS5B pol assay (^32P-GTP) IC95
[2] = Cytotoxicity panel (CC50), Huh-7; assay type: cell-based, human; conditions: human, huh-7 cells
[3] = Cytotoxicity panel (CC50), CEM; assay type: cell-based; conditions: human, cem cells
[4] = Cytotoxicity panel (CC50), BxPC3; assay type: cell-based; conditions: human, bxpc3 cells
[5] = Cytotoxicity panel (CC50), HepG2; assay type: cell-based; conditions: human, hepg2 cells
[6] = Cytotoxicity panel (CC50), A204; assay type: cell-based; conditions: human, a204 cells
[7] = Cytotoxicity panel (CC50), H9c; assay type: cell-based; conditions: rat, h9c cells
[8] = Cytotoxicity panel (CC50), IEC-6; assay type: cell-based; conditions: rat, iec-6 cells
[9] = tested on: Huh-7; assay: Cytotoxicity panel (CC50), Huh-7; assay type: cell-based, human; conditions: Huh-7

Row | Compound | CC50 [2] [µM] | CC50 [3] [µM] | CC50 [4] [µM] | CC50 [5] [µM] | also measured
1 | C[C@@]1(F)[C@H](O)[C@@H](COP(=O)(O)OP(=O)(O)OP(=O)(O)O)O[C@H]1n1ccc(=O)[nH]c1=O | – | – | – | – | IC25 [1]: 0.52 µM; IC95 [1]: 9.91 µM
2 | C[C@@]1(O)[C@H](O)[C@@H](COP(=O)(O)OP(=O)(O)OP(=O)(O)O)O[C@H]1n1ccc(=O)[nH]c1=[Se] | – | – | – | – | IC25 [1]: 6.82 µM; IC95 [1]: > 100 µM
3 | O=c1[nH]c(=S)ccn1[C@@H]1O[C@H](CO)[C@@H](O)[C@H]1O | 60 | – | – | – | –
4 | C[C@@]1(O)[C@H](O)[C@@H](CO)O[C@H]1n1ccc(=S)[nH]c1=O | > 100 | > 400 | > 100 | > 400 | –
5 | C[C@@]1(F)[C@H](O)[C@@H](CO)O[C@H]1n1ccc(=S)[nH]c1=O | > 400 | > 400 | – | > 400 | –
6 | CC(C)OC(=O)[C@H](C)NP(=O)(OC[C@H]1O[C@@H](n2ccc(=S)[nH]c2=O)[C@](C)(F)[C@@H]1O)Oc1ccccc1 (stereo partly drawn) | > 300 | – | > 300 | – | CC50 [6]: > 200 µM; CC50 [7]: > 400 µM; CC50 [8]: > 400 µM
7 | CC(C)OC(=O)[C@H](C)NP(=O)(OC[C@H]1O[C@@H](n2ccc(=O)[nH]c2=O)[C@](C)(O)[C@@H]1O)Oc1ccccc1 (stereo partly drawn) | – | – | – | – | CC50 [8]: 80 µM
8 | CC(C)OC(=O)[C@H](C)NP(=O)(OC[C@H]1O[C@@H](n2ccc(=O)[nH]c2=[Se])[C@](C)(O)[C@@H]1O)Oc1ccccc1 (stereo partly drawn) | > 100 | – | > 400 | > 400 | CC50 [6]: > 400 µM
9 | CC(C)OC(=O)[C@H](C)N[P@@](=O)(OC[C@H]1O[C@@H](n2ccc(=O)[nH]c2=O)[C@](C)(F)[C@@H]1O)Oc1ccccc1 | > 400 | > 400 | – | > 400 | –
10 | C[C@H](NP(=O)(O)OC[C@H]1O[C@@H](n2ccc(=O)[nH]c2=S)[C@](C)(O)[C@@H]1O)C(=O)O | > 400 | > 400 | – | > 400 | –
11 | C[C@@]1(O)[C@H](O)[C@@H](COP(=O)(O)O)O[C@H]1n1ccc(=O)[nH]c1=S | > 400 | > 400 | – | > 400 | –
12 | CC(C)OC(=O)[C@H](C)NP(=O)(OC[C@H]1O[C@@H](n2ccc(=O)[nH]c2=S)[C@H](O)[C@@H]1O)Oc1ccccc1 (stereo partly drawn) [drawing 451] | – | – | – | – | CC50 [9]: > 400 µM
13 | C[C@@]1(O)[C@H](O)[C@@H](CO)O[C@H]1n1ccc(=O)[nH]c1=S [drawing 452] | > 100 | > 200 | > 100 | > 400 | –
14 | CC(C)OC(=O)[C@H](C)NP(=O)(OC[C@H]1O[C@@H](n2ccc(=O)[nH]c2=S)[C@](C)(O)[C@@H]1O)Oc1ccccc1 (stereo partly drawn) [drawing 453] | > 400 | > 300 | > 300 | > 400 | CC50 [6]: 98 µM; CC50 [7]: > 200 µM; CC50 [8]: > 200 µM
15 | CC(C)OC(=O)[C@H](C)NP(=O)(OC[C@H]1O[C@@H](n2ccc(=S)[nH]c2=O)[C@](C)(O)[C@@H]1O)Oc1ccccc1 (stereo partly drawn) [drawing 455] | > 400 | 169 | > 300 | > 400 | CC50 [6]: > 200 µM; CC50 [7]: > 200 µM; CC50 [8]: > 400 µM
16 | CC(C)OC(=O)[C@H](C)N[P@](=O)(OC[C@H]1O[C@@H](n2ccc(=O)[nH]c2=O)[C@](C)(F)[C@@H]1O)Oc1ccccc1 [drawing 460] | – | > 400 | – | – | –
17 | CC(C)OC(=O)[C@H](C)NP(=O)(OC[C@H]1O[C@@H](n2ccc(=S)[nH]c2=O)[C@H](O)[C@@H]1O)Oc1ccccc1 (stereo partly drawn) [drawing 462] | – | > 400 | – | > 400 | CC50 [9]: 369 µM
18 | CC(C)OC(=O)[C@H](C)NP(=O)(OC[C@H]1O[C@@H](n2ccc(=O)[nH]c2=S)[C@H](O)[C@@H]1O)Oc1ccccc1 (stereo partly drawn) [drawing 463] | > 400 | > 400 | – | > 400 | –
